From patent US8969565B2, “Imidazo[1,2-b]pyridazine-based compounds, compositions comprising them, and methods of their use” (Lexicon Pharmaceuticals, Inc., priority 2012, dated 2015) come the findings set out here.

T1 sequence (Q2M2I8 1-863 isoform Q2M2I8-2): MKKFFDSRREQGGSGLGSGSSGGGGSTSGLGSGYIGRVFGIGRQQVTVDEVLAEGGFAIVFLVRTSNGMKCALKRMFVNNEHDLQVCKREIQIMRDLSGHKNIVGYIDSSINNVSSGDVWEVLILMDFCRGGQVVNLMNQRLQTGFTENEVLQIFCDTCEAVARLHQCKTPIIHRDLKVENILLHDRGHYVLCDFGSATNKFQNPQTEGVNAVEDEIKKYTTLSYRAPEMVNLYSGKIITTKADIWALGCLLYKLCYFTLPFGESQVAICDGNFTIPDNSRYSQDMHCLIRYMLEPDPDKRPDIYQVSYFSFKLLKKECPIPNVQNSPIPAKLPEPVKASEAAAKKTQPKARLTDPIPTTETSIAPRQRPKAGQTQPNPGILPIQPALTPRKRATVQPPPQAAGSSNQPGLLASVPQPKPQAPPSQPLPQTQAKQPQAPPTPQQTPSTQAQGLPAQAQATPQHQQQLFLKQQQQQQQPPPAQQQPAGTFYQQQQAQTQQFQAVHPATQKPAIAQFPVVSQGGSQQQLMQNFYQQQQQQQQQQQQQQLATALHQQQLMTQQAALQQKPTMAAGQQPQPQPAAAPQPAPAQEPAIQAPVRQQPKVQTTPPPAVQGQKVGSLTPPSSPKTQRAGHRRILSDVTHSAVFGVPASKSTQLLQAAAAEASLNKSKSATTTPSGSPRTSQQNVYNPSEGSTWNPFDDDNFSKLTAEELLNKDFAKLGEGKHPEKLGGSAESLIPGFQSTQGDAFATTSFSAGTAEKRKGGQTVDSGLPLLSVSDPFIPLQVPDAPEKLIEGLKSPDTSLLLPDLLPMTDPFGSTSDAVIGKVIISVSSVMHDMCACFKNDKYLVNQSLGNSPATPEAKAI

This experiment concerns the target T1, AAK1 (Homo sapiens, UniProt Q2M2I8).
T1 construct: HA; expressed in transfected cells; host or cells: HEK293F
Briefly: HEK281 cell-based assay (phospho-mu2 Western blot in transfected HEK293F cells). As to conditions: 3 hours incubation, read-out: CBA IC50. The method, then:
HEK293F cells were cultured in media containing DMEM (Gibco, cat. #11965), 10% FBS (SAFC Biosciences, cat. #12103C), 1×GPS (glutamine, penicillin and streptomycin). On day one, cells were plated on a 10 cm dish so that they are ˜80% confluent at time of transfection. Roughly 12 million cells were in a 10 cm dish at time of transfection. On day two, each dish was transfected with 48 ug DNA and 144 ul Lipofectamine 2000 (Invitrogen, cat.#11668-019). The DNA was comprised of a mixture (per 10 cm dish) containing 3 ug AAK1/HA/pIRES (full length human, NCBI accession no. NP_055726.2), 45 μg Flag/AP2MI/pcDNA (full length human), and 1.5 ml OPTI-MEM. The Lipofectamine 2000 is made up of a mixture (per 10 cm dish) containing 144 μl Lipofectamine 2000 and 1.5 ml OPTI-MEM. Each mixture was transferred to individual 15 ml tubes and incubated at RT for 5 minutes, and then the two mixes were combined and incubated at RT for 20 minutes. Growth media was then aspirated from each 10 cm plate and replaced with 10 ml of DMEM+10% FBS (no GPS). Finally, 3 ml DNA/Lipofectamine mix was added to each 10 cm dish and mix gently followed by incubate of plate overnight at 37° C. and 5% CO2.
On day three, compounds were diluted in 100% DMSO at 1000× final concentration, followed by 3-fold serial dilutions for a total of 5 concentrations tested. Four compounds were tested per 10 cm dish. One ul of each compound dilution was then pipetted into a deep-well, 96-well plate, followed by addition of 500 μl DMEM+0.5% FBS into each well for a 2× final concentration of each compound. Cells were resuspended in a 10 cm dish by simple pipetting (HEK293 cells come off the plate that easy at this point) and then transferred to a 50 ml conical tube and pelleted by centrifugation at 1000 rpm for 5 min. Cell pellets were then resuspended in 2.75 ml DMEM+0.5% FBS per 10 cm dish and 100 μl of cell suspension transferred into each well of 96-well TC plate. Finally, 100 μl of 2× compound diluted in DMEM+0.5% FBS was then added into wells containing cell suspension for a 1× final concentration. Plates were then incubated at 37° C. and 5% CO2 for 3 hours followed by transferring of cell suspensions from each well into 12-tube PCR strips. The PCR strips were spun in a tip rack at 1000 rpm for 5 minutes to pellet cells and media was then removed by pipetting without disturbing the cell pellet.
To prepare for Western Blot analysis, cell pellets were resuspend in 40 ul 1×LDS-PAGE sample buffer (Invitrogen, cat.#NP0008)+2× Halt phophatase and protease inhibitor cocktail (Thermo Scientific, cat.#1861284), followed by sonicating each with microtip sonicator set at 5 for 8-10 seconds. Five ul of 10× NuPage Sample Reducing Agent (with 50 mM DTT) was to each sample followed by heat denaturing at 70 C for 10 min on PCR machine. A total of 10 μl per sample was loaded into each lane of a 4-20% Tris-Glycine Criterion 26-well gel (Biorad, cat.#345-0034) for the phospho-mu2 blot and 10 μl per lane in a 4-12% Bis-Tris (+MES buffer) NuPAGE 26-well gel (Invitrogen, cat.#WG1403BX10) for the mu2 blot. For controls, 2 ng of phospho-mu2 or 20 ng mu2/Flag proteins were loaded in the last well of each gel. After SDS-PAGE, samples on each gel were transferred to PVDF membrane using an iBlot and membranes were blocked for one hour in TBST+5% milk, followed by wash 3× for 5-10 min with TBST. Criterion gels were probed with rabbit anti-phospho-mu2 (1:5000; a rabbit polyclonal antibody produced by New England Peptide and affinity purified at Lexicon) in TBST+5% BSA, whereas, NuPAGE gels were probed with mouse anti-Flag (1:500; Sigma, cat.#F1804) in TBST+5% milk, and these primary antibodies were incubated overnight at 4° C. on a rocker.
Background: A western blot detects proteins with antibodies after separation by electrophoresis.
In general, IC50 refers to the midpoint of a concentration-inhibition curve. In the case of `CC(C)COCCNc1ccc2ncc(-c3ccc(C(=O)NCCN4CCCC4)cc3)n2n1` [4-(6-((2-isobutoxyethyl)amino)imidazo[1,2-b]pyridazin-3-yl)-N-(2-(pyrrolidin-1-yl)ethyl)benzamide], the concentration for half-maximal inhibition (IC50) is ≤ 100 nM.
As for `CC(C)OCCNc1ccc2ncc(-c3ccc(C(=O)NCCN4CCCC4)cc3)n2n1` [4-(6-((2-isopropoxyethyl)amino)imidazo[1,2-b]pyridazin-3-yl)-N-(2-(pyrrolidin-1-yl)ethyl)benzamide], the figure is ≤ 100 nM; as for `COc1ccccc1CCNc1ccc2ncc(-c3ccc(C(N)=O)cc3)n2n1` [4-(6-((2-methoxyphenethyl)amino)imidazo[1,2-b]pyridazin-3-yl)benzamide], ≤ 10 nM.
Consider `NC(=O)c1ccc(-c2cnc3ccc(NCCc4cccc(C(F)(F)F)c4)nn23)cc1` [4-(6-((3-(trifluoromethyl)phenethyl)amino)imidazo[1,2-b]pyridazin-3-yl)benzamide], for which the half-maximal inhibitory concentration (IC50) is ≤ 100 nM.
In the case of `CCCCNc1ccc2ncc(-c3ccc(C(=O)NCCNC)c(F)c3)n2n1` [4-(6-(butylamino)imidazo[1,2-b]pyridazin-3-yl)-2-fluoro-N-(2-(methylamino)ethyl)benzamide], the concentration for half-maximal inhibition (IC50) is ≤ 100 nM.
On to `CCCCNc1ccc2ncc(-c3ccc(C(=O)NCCN(CC)CC)cc3)n2n1` [4-(6-(butylamino)imidazo[1,2-b]pyridazin-3-yl)-N-(2-(diethylamino)ethyl)benzamide], for which the IC50 is ≤ 10 nM.
As for `CCCCNc1ccc2ncc(-c3ccc(C(=O)NCCN(C)C)cc3)n2n1` [4-(6-(butylamino)imidazo[1,2-b]pyridazin-3-yl)-N-(2-(dimethylamino)ethyl)benzamide], the figure is ≤ 100 nM; as for `CCCCNc1ccc2ncc(-c3ccc(C(=O)NCCNC)cc3)n2n1` [4-(6-(butylamino)imidazo[1,2-b]pyridazin-3-yl)-N-(2-(methylamino)ethyl)benzamide], ≤ 100 nM.
Regarding `CCCCNc1ccc2ncc(-c3ccc(C(=O)NCCN4CCCC4)cc3)n2n1` [4-(6-(butylamino)imidazo[1,2-b]pyridazin-3-yl)-N-(2-(pyrrolidin-1-yl)ethyl)benzamide], the IC50 is ≤ 100 nM.
With `CCCCNc1ccc2ncc(-c3ccc(C(N)=O)cc3)n2n1` [4-(6-(butylamino)imidazo[1,2-b]pyridazin-3-yl)benzamide], the 50% inhibitory concentration (IC50) was ≤ 100 nM.
On to `CC(C)(O)CCNc1ccc2ncc(-c3ccc(CN)cc3)n2n1` [4-((3-(4-(aminomethyl)phenyl)imidazo[1,2-b]pyridazin-6-yl)amino)-2-methylbutan-2-ol], for which the IC50 is ≤ 100 nM.
Turning to `CCCCNc1ccc2ncc(-c3ccc(C(N)=O)s3)n2n1` [5-(6-(butylamino)imidazo[1,2-b]pyridazin-3-yl)thiophene-2-carboxamide], the IC50 is ≤ 1000 nM.
Consider `CCCNc1ccc2ncc(-c3ccc(C=O)s3)n2n1` [5-(6-(propylamino)imidazo[1,2-b]pyridazin-3-yl)thiophene-2-carbaldehyde], for which the IC50 was ≤ 1000 nM.
Consider `CCCCNc1ccc2ncc(C(=O)Nc3cn[nH]c3)n2n1` [6-(butylamino)-N-(1H-pyrazol-4-yl)imidazo[1,2-b]pyridazine-3-carboxamide], for which the IC50 was ≤ 1000 nM.
In the case of `CCOC(=O)N1CCC[C@H]1CNc1ccc2ncc(-c3ccc(C4CCCN4)cc3)n2n1` (stereo partly drawn) [(2S)-ethyl 2-(((3-(4-(pyrrolidin-2-yl)phenyl)imidazo[1,2-b]pyridazin-6-yl)amino)methyl)pyrrolidine-1-carboxylate], the IC50 is ≤ 100 nM.
Consider `COC(=O)N1CCC[C@H]1CNc1ccc2ncc(-c3ccc(C4CCCN4)cc3)n2n1` (stereo partly drawn) [(2S)-methyl 2-(((3-(4-(pyrrolidin-2-yl)phenyl)imidazo[1,2-b]pyridazin-6-yl)amino)methyl)pyrrolidine-1-carboxylate], for which the IC50 was ≤ 100 nM.
Consider `CCCCNc1ccc2ncc(-c3ccc(C(=O)N4CCC(N)CC4)cc3)n2n1` [(4-aminopiperidin-1-yl)(4-(6-(butylamino)imidazo[1,2-b]pyridazin-3-yl)phenyl)methanone], for which the concentration for half-maximal inhibition (IC50) was ≤ 1000 nM.
Then `CC(C)OC(=O)N(C)CCNc1ccc2ncc(-c3ccc([C@H]4CCCN4)cc3)n2n1` [(R)-isopropyl methyl(2-((3-(4-(pyrrolidin-2-yl)phenyl)imidazo[1,2-b]pyridazin-6-yl)amino)ethyl)carbamate], with ≤ 100 nM; and `CCCCNc1ccc2ncc(-c3ccc([C@H]4CCCN4)cc3)n2n1` [(R)—N-butyl-3-(4-(pyrrolidin-2-yl)phenyl)imidazo[1,2-b]pyridazin-6-amine], with ≤ 1000 nM.
As for `COc1ccccc1-c1cnc2ccc(NC[C@@H]3CCCN3C(=O)CC(C)C)nn12` [(S)-1-(2-(((3-(2-methoxyphenyl)imidazo[1,2-b]pyridazin-6-yl)amino)methyl)pyrrolidin-1-yl)-3-methylbutan-1-one], the figure is ≤ 10 nM.
Take `COc1ccccc1-c1cnc2ccc(NC[C@@H]3CCCN3C(C)=O)nn12` [(S)-1-(2-(((3-(2-methoxyphenyl)imidazo[1,2-b]pyridazin-6-yl)amino)methyl)pyrrolidin-1-yl)ethanone]: the IC50 was ≤ 100 nM.
Then `COc1cnccc1-c1cnc2ccc(NC[C@@H]3CCCN3C(=O)CC(C)C)nn12` [(S)-1-(2-(((3-(3-methoxypyridin-4-yl)imidazo[1,2-b]pyridazin-6-yl)amino)methyl)pyrrolidin-1-yl)-3-methylbutan-1-one], with ≤ 10 nM; and `COc1cnccc1-c1cnc2ccc(NC[C@@H]3CCCN3C(C)=O)nn12` [(S)-1-(2-(((3-(3-methoxypyridin-4-yl)imidazo[1,2-b]pyridazin-6-yl)amino)methyl)pyrrolidin-1-yl)ethanone], with ≤ 100 nM.
Then `CC(C)CC(=O)N1CCC[C@H]1CNc1ccc2ncc(-c3ccc(CN)cc3)n2n1` [(S)-1-(2-(((3-(4-(aminomethyl)phenyl)imidazo[1,2-b]pyridazin-6-yl)amino)methyl)pyrrolidin-1-yl)-3-methylbutan-1-one], with ≤ 10 nM; and `CC(C)CC(=O)N1CCC[C@H]1CNc1ccc2ncc(Br)n2n1` [(S)-1-(2-(((3-bromoimidazo[1,2-b]pyridazin-6-yl)amino)methyl)pyrrolidin-1-yl)-3-methylbutan-1-one], with ≤ 100 nM.
With `CCCCNc1ccc2ncc(-c3ccc(CNC(=O)[C@@H](N)CC(C)C)cc3)n2n1` [(S)-2-amino-N-(4-(6-(butylamino)imidazo[1,2-b]pyridazin-3-yl)benzyl)-4-methylpentanamide], the IC50 is ≤ 100 nM.
As to `NCc1ccc(-c2cnc3ccc(NC[C@@H]4CCCO4)nn23)cc1` [(S)-3-(4-(aminomethyl)phenyl)-N-((tetrahydrofuran-2-yl)methyl)imidazo[1,2-b]pyridazin-6-amine], the concentration for half-maximal inhibition (IC50) is ≤ 100 nM.
Then `CC(C)CC(=O)N1CCC[C@H]1CNc1ccc2ncc(-c3ccncc3)n2n1` [(S)-3-methyl-1-(2-(((3-(pyridin-4-yl)imidazo[1,2-b]pyridazin-6-yl)amino)methyl)pyrrolidin-1-yl)butan-1-one], with ≤ 100 nM.
Consider `CCCCNc1ccc2ncc(-c3ccc([C@@H]4CCCN4)cc3)n2n1` [(S)-N-butyl-3-(4-(pyrrolidin-2-yl)phenyl)imidazo[1,2-b]pyridazin-6-amine], for which the IC50 is ≤ 100 nM.
Turning to `CCOC(=O)N1CCC[C@H]1CNc1ccc2ncc(-c3ccccc3OC)n2n1` [(S)-ethyl 2-(((3-(2-methoxyphenyl)imidazo[1,2-b]pyridazin-6-yl)amino)methyl)pyrrolidine-1-carboxylate], the 50% inhibitory concentration (IC50) is ≤ 100 nM.
